Results taken from patent US10316028B2, “Orexin receptor antagonists” (Heptares Therapeutics Limited, priority 2012, dated 2019).

Biological target: T1, human Orexin-2 receptor (Homo sapiens, UniProt O43614)
T1 construct: expressed in transfected cells; host or cells: HEK293 cells (transient transfection, Genejuice); membranes
T1 sequence (O43614 1-444): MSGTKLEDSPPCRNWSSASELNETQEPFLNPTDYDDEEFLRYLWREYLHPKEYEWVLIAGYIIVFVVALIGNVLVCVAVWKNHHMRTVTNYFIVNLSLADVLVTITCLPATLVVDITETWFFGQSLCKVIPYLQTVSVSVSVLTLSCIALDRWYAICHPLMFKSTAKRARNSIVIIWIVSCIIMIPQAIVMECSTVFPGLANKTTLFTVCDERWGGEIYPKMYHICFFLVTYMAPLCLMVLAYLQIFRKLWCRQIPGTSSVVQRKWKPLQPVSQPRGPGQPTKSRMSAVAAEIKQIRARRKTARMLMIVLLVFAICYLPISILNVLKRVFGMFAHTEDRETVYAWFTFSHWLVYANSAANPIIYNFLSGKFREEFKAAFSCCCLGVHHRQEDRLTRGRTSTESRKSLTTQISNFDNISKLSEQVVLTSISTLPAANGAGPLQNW
Assay: 3H-EMPA radioligand binding assay
Conditions: 3H-EMPA displacement, membranes of HEK293 cells transfected with human Orexin-2 receptor; KI by Cheng-Prussoff; read-out: OX2 pKi ave (converted)
Procedure: cDNA encoding the human Orexin-2 receptor was transfected into HEK293 cells using the transfection reagent Genejuice (Novagen). Forty-eight hours after transfection, cells were harvested and washed twice with ice cold phosphate-buffered saline. The pellet was resuspended in ice-cold buffer containing 20 mM Tris-HCl, pH 7.4, 1 mM EDTA and homogenised with an Ultraturax for 30 s at maximum speed. After centrifugation at 48,000 g for 30 min at 4° C., the pellet was resuspended and spun again. The final pellet was resuspended and frozen at −80° C. before use. Protein concentration was determined using the BCA protein assay method.
^3H-EMPA Radioligand Binding Assay
At the end of the incubation, membranes were filtered onto a unifilter, a 96-well white microplate with bonded GF/B filter pre-incubated with 0.5% polyethylenimine, with a Tomtec cell harvester and washed 4 times with distilled water. […] Radioactivity on the filter was counted (1 min) on a microbeta counter after addition of 50 µL of scintillation fluid. […] IC50 values were derived from the inhibition curve and the equilibrium dissociation constant (KI) values were calculated using the Cheng-Prussoff equation.

| Ki [nM] | Structure (SMILES) |
| --- | --- |
| 550 | COc1cccc(CCN2C(=O)N(Cc3c(F)cccc3F)c3ccccc3S2(=O)=O)c1 [Example 66, 4-(2,6-Difluorobenzyl)-2-[2-(3-methoxyphenyl)ethyl]-2H-1,2,4-benzothiadiazin-3(4H)-one 1,1-dioxide] |
| 7.08 | COc1ccc(N2C(=O)N(Cc3ccccc3F)c3ccccc3S2(=O)=O)cc1OC [Example 67, 2-(3,4-Dimethoxyphenyl)-4-(2-fluorobenzyl)-2H-1,2,4-benzothiadiazin-3(4H)-one 1,1-dioxide] |
| 0.708 | COc1ccc(N2C(=O)N(Cc3c(Cl)cccc3Cl)c3ccccc3S2(=O)=O)cc1OC [Example 68, 4-(2,6-Dichlorobenzyl)-2-(3,4-dimethoxyphenyl)-2H-1,2,4-benzothiadiazin-3(4H)-one 1,1-dioxide] |
| 1.07 | COc1cc(OC)cc(N2C(=O)N(Cc3c(F)cccc3Cl)c3ccccc3S2(=O)=O)c1 [Example 69, 4-(2-Chloro-6-fluorobenzyl)-2-(3,5-dimethoxyphenyl)-2H-1,2,4-benzothiadiazin-3(4H)-one 1,1-dioxide] |
| 2 | COc1cc(OC)cc(N2C(=O)N(Cc3c(Cl)cccc3Cl)c3ccccc3S2(=O)=O)c1 [Example 70, 4-(2,6-Dichlorobenzyl)-2-(3,5-dimethoxyphenyl)-2H-1,2,4-benzothiadiazin-3(4H)-one 1,1-dioxide] |
| 7.08 | COc1ccc(N2C(=O)N(Cc3cccc(Cl)c3F)c3ccccc3S2(=O)=O)cc1OC [Example 71, 4-(3-Chloro-2-fluorobenzyl)-2-(3,4-dimethoxyphenyl)-2H-1,2,4-benzothiadiazin-3(4H)-one 1,1-dioxide] |
| 10.5 | COc1ccc(N2C(=O)N(Cc3ccc(Cl)cc3F)c3ccccc3S2(=O)=O)cc1OC [Example 72, 4-(4-Chloro-2-fluorobenzyl)-2-(3,4-dimethoxyphenyl)-2H-1,2,4-benzothiadiazin-3(4H)-one 1,1-dioxide] |
| 2.09 | O=C1N(Cc2c(F)cccc2Cl)c2ccccc2S(=O)(=O)N1c1cccc(SC(F)(F)F)c1 [Example 73, 4-(2-Chloro-6-fluorobenzyl)-2-{3-[(trifluoromethyl)sulfanyl]phenyl}-2H-1,2,4-benzothiadiazin-3(4H)-one 1,1-dioxide] |
| 11.7 | CSc1cccc(N2C(=O)N(Cc3c(F)cccc3Cl)c3ccc(F)cc3S2(=O)=O)c1 [Example 74, 4-(2-Chloro-6-fluorobenzyl)-7-fluoro-2-[3-(methylsulfanyl)phenyl]-2H-1,2,4-benzothiadiazin-3(4H)-one 1,1-dioxide] |
| 8.32 | O=C1N(Cc2c(F)cccc2F)c2ccccc2S(=O)(=O)N1c1cccc(SC(F)(F)F)c1 [Example 75, 4-(2,6-Difluorobenzyl)-2-{3-[(trifluoromethyl)sulfanyl]phenyl}-2H-1,2,4-benzothiadiazin-3(4H)-one 1,1-dioxide] |
| 14.8 | CSc1cccc(N2C(=O)N(Cc3c(F)cccc3Cl)c3cc(F)ccc3S2(=O)=O)c1 [Example 76, 4-(2-Chloro-6-fluorobenzyl)-6-fluoro-2-[3-(methylsulfanyl)phenyl]-2H-1,2,4-benzothiadiazin-3(4H)-one 1,1-dioxide] |
| 8.91 | COc1ccc(N2C(=O)N(Cc3c(C)cccc3C)c3ccccc3S2(=O)=O)cc1OC [Example 77, 4-(2,6-Dimethylbenzyl)-2-(3,4-methoxyphenyl)-2H-1,2,4-benzothiadiazin-3(4H)-one 1,1-dioxide] |
| 4.07 | COc1cc(N2C(=O)N(Cc3c(F)cccc3Cl)c3ccccc3S2(=O)=O)cc(OC)c1OC [Example 78, 4-(2-Chloro-6-fluorobenzyl)-2-(3,4,5-trimethoxyphenyl)-2H-1,2,4-benzothiadiazin-3(4H)-one 1,1-dioxide] |
| 0.389 | COc1ccc(N2C(=O)N(Cc3c(C)cccc3F)c3ccccc3S2(=O)=O)cc1OC [Example 79, 4-(2-Fluoro-6-methylbenzyl)-2-(3,4-methoxyphenyl)-2H-1,2,4-benzothiadiazin-3(4H)-one 1,1-dioxide] |
| 7.59 | COc1c(C)cc(N2C(=O)N(Cc3ccc(F)cc3Cl)c3ccccc3S2(=O)=O)cc1C [Example 80, 4-(2-Chloro-4-fluorobenzyl)-2-(4-methoxy-3,5-dimethylphenyl)-2H-1,2,4-benzothiadiazin-3(4H)-one 1,1-dioxide] |
| 0.0832 | COc1c(C)cc(N2C(=O)N(Cc3c(F)cccc3Cl)c3ccccc3S2(=O)=O)cc1C [Example 81, 4-(2-Chloro-6-fluorobenzyl)-2-(4-methoxy-3,5-dimethylphenyl)-2H-1,2,4-benzothiadiazin-3(4H)-one 1,1-dioxide] |
| 3.31 | Cc1cc(N2C(=O)N(Cc3c(F)cccc3Cl)c3ccccc3S2(=O)=O)cc(C)c1O [Example 82, 4-(2-Chloro-6-fluorobenzyl)-2-(4-hydroxy-3,5-dimethylphenyl)-2H-1,2,4-benzothiadiazin-3(4H)-one 1,1-dioxide] |
| 295 | CSc1cccc(N2C(=O)N(Cc3cc(C)nn3C)c3ccccc3S2(=O)=O)c1 [Example 83, 4-[(1,3-Dimethyl-1H-pyrazol-5-yl)methyl]-2-[3-(methylsulfanyl)phenyl]-2H-1,2,4-benzothiadiazin-3(4H)-one 1,1-dioxide] |
| 490 | COc1ccc(N2C(=O)N(Cc3c(C)ccnc3C)c3ccccc3S2(=O)=O)cc1OC [Example 84, 2-(3,4-Dimethoxyphenyl)-4-[(2,4-dimethylpyridin-3-yl)methyl]-2H-1,2,4-benzothiadiazin-3(4H)-one 1,1-dioxide] |
| 60.3 | COc1ccc(N2C(=O)N(Cc3c(F)cncc3F)c3ccccc3S2(=O)=O)cc1OC [Example 85, 4-[(3,5-Difluoropyridin-4-yl)methyl]-2-(3,4-dimethoxyphenyl)-2H-1,2,4-benzothiadiazin-3(4H)-one 1,1-dioxide] |
| 74.1 | COc1ccc(N2C(=O)N(Cc3ncc(C)cc3C)c3ccccc3S2(=O)=O)cc1OC [Example 86, 4-[(3,5-Dimethylpyridin-2-yl)methyl]-2-(3,4-dimethoxyphenyl)-2H-1,2,4-benzothiadiazin-3(4H)-one 1,1-dioxide] |
| 35.5 | CSc1cccc(N2C(=O)N(Cc3ncccc3C)c3ccccc3S2(=O)=O)c1 [Example 87, 4-[(3-Methylpyridin-2-yl)methyl]-2-[3-(methylsulfanyl)phenyl]-2H-1,2,4-benzothiadiazin-3(4H)-one 1,1-dioxide] |
| 28.2 | COc1ccc(N2C(=O)N(Cc3ncccc3F)c3ccccc3S2(=O)=O)cc1OC [Example 88, 2-(3,4-Dimethoxyphenyl)-4-[(3-fluoropyridin-2-yl)methyl]-2H-1,2,4-benzothiadiazin-3(4H)-one 1,1-dioxide] |
| 38.9 | COc1ccc(N2C(=O)N(Cc3ncc(Br)cc3F)c3ccccc3S2(=O)=O)cc1OC [Example 89, 4-[(5-Bromo-3-fluoropyridin-2-yl)methyl]-2-(3,4-dimethoxyphenyl)-2H-1,2,4-benzothiadiazin-3(4H)-one 1,1-dioxide] |
| 3.02 | COc1ccc(N2C(=O)N(Cc3c(Cl)cncc3Cl)c3ccccc3S2(=O)=O)cc1OC [Example 90, 4-[(3,5-Dichloropyridin-4-yl)methyl]-2-(3,4-dimethoxyphenyl)-2H-1,2,4-benzothiadiazin-3(4H)-one 1,1-dioxide] |
| 38 | COc1ccc(N2C(=O)N(Cc3c(F)cccc3Cl)c3ccncc3S2(=O)=O)cc1OC [Example 91, 4-(2-Chloro-6-fluorobenzyl)-2-(3,4-dimethoxyphenyl)-2H-pyrido[4,3-e][1,2,4]thiadiazin-3(4H)-one 1,1-dioxide] |
